Results as given in publication PMC9937549 (Frontiers in tropical diseases, 2023).
Values after ≈ are worked out from the molar mass of the structure shown.

How the values were obtained:
[1] = test system: L. donovani intracellular amastigotes infecting THP-1 cells; assay: Intracellular amastigote assay; format: cell-based, Leishmania donovani; details: for EC50: read-out: Intracellular Amastigote EC50, Leishmania donovani, THP-1 host, 72 h; for inhibition of parasite growth (primary screen): single point 10 μM, L. donovani amastigotes in THP-1
[2] = test system: L. donovani promastigotes; assay: Promastigote assay; format: cell-based; details: read-out: Extracellular promastigote EC50; Leishmania donovani, 72 h
[3] = test system: L. major intracellular amastigotes; assay: Intracellular amastigote assay; format: cell-based; details: read-out: Intracellular Amastigote EC50; Leishmania major, THP-1 host, 72 h
L. major promastigotes = assay: Promastigote assay; format: cell-based; details: read-out: Extracellular promastigote EC50; Leishmania major, 72 h
THP-1 cells = assay: Host THP-1 cell cytotoxicity; format: cell-based, human; details: for cytotoxicity to the host THP-1 cells (GI): primary screen, single point 10 μM; for CC50: read-out: Host (THP-1) cell CC50, UCSF assay
[4] = test system: L. donovani intracellular amastigotes infecting THP-1 macrophages; assay: GSK intramacrophage L. donovani assay; format: cell-based, Leishmania donovani; details: read-out: LD AMMAC EC50; growth inhibition of L. donovani intracellular amastigotes infecting THP-1 macrophages (GSK)
host THP-1 macrophages = assay: GSK LD MAC host cell toxicity readout of inMac assay; format: cell-based; details: read-out: LD MAC EC50; cytotoxicity against host THP-1 macrophages (GSK)
HepG2 cells = assay: HepG2 cytotoxicity; format: cell-based
[5] = Kinetic aqueous solubility by CLND; format: physicochemical; details: high-throughput CLND
[6] = Artificial membrane permeability; format: in vitro ADME; details: pH 7.4
human serum albumin = human serum albumin (Homo sapiens, UniProt P02768); assay: Human serum albumin; format: in vitro ADME; details: immobilized HSA column
Property forecast index = format: physicochemical; details: ChromLogD7.4 + Aromatic rings
[7] = test system: intracellular parasites of Leishmania donovani; assay: Antileishmanial potency against visceral leishmaniasis; format: cell-based; details: read-out: EC50 (visceral leishmaniasis)
host macrophage = assay: Host cell cytotoxicity in the same assay; format: cell-based; details: abstract
[8] = test system: intramacrophage Leishmania; details: read-out: intramacrophage EC50; cited from earlier work
[9] = test system: L. donovani intracellular amastigotes infecting B10R cells; assay: Intracellular amastigote assay; format: cell-based; details: read-out: L. donovani EC50; intracellular amastigotes infecting B10R cells (UCSD assay), average of two biological replicates
host B10R cells = format: cell-based
FaSSIF solubility = format: physicochemical; details: racemate
[10] = format: in vitro ADME; details: microsomes
Whole blood stability = format: in vitro ADME; details: criterion: no % reduction over 120 min; racemate
Plasma protein binding = format: in vitro ADME; details: racemate, rapid equilibrium dialysis

Chain of human serum albumin (P02768 25-609): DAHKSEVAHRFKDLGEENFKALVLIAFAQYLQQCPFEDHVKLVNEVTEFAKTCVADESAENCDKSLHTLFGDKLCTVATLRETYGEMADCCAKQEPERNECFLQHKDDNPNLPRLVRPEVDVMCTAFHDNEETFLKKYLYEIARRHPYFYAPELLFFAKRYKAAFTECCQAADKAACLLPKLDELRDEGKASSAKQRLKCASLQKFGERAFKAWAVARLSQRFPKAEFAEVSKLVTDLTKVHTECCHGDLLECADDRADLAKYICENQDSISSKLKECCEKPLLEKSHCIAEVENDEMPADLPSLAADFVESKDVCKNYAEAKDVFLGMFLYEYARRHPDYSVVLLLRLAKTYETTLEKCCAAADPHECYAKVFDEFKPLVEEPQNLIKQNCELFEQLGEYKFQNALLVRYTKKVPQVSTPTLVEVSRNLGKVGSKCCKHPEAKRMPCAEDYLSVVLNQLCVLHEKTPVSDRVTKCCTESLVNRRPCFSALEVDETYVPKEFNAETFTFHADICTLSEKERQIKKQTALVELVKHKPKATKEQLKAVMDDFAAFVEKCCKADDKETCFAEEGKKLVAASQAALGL

Row | EC50 [1] [nM] | EC50 [2] [nM] | EC50 [3] [nM] | EC50 (L. major promastigotes) [nM] | EC50 [4] [nM] | Solubility (CLND) [5] [µM] | AMP [6] [nm/s] | HSA Binding (human serum albumin) [%] | PFI (Property forecast index) | SMILES | inhibition of parasite growth (primary screen) [1] [%] | cytotoxicity to the host THP-1 cells (GI) (THP-1 cells) [% GI] | CC50 (THP-1 cells) [nM] | EC50 (host THP-1 macrophages) [nM] | EC50 (HepG2 cells) [nM] | EC50 [8] [nM] | other results
1 | 3700 | 2400 | 1700 | 4200 | 3200 | 90 (≈ 32.5 µg/mL) | 370 | 95.8 | 8.4 | COc1ccc(N2C(=O)c3[nH]nc(CC(C)C)c3C2c2ccccc2)cc1 (stereo not shown) [Compound 2] | > 99 | < 13 | > 20000 | 31600 | 79400 | – | –
2 | – | – | – | – | – | – | – | – | – | COc1ccc(N2C(=O)c3[nH]nc(CC(C)C)c3C2c2ccc(C)cc2)cc1 (stereo not shown) [CMLD007430] | 0 | – | – | – | – | – | –
3 | – | – | – | – | – | – | – | – | – | C[C@@H]1[C@H](O)[C@@H](C)/C=C/C=C/C=C/C=C/C=C/C=C/C=C/[C@H](O[C@@H]2O[C@H](C)[C@@H](O)[C@H](N)[C@@H]2O)C[C@@H]2O[C@](O)(C[C@@H](O)C[C@@H](O)[C@H](O)CC[C@@H](O)C[C@@H](O)CC(=O)O[C@H]1C)C[C@H](O)[C@H]2C(=O)O [amphotericin B] | – | – | – | – | – | – | EC50 [7]: 200 nM; concentration cytotoxic to the host cell (host macrophage): 5.0 µM
4 | – | – | – | – | – | – | – | – | – | O=C(Nc1ccc(F)c(-c2ccn3c(N4CCOCC4)cnc3n2)c1)N1CCCC1 [GSK3494245] | – | – | – | – | – | 1600 | –
5 | 2500 | 2000 | 1300 | 4400 | 2500 | 107 (≈ 40.6 µg/mL) | 345 | 96.4 | 8.4 | COc1ccc(N2C(=O)c3[nH]nc(CC(C)C)c3C2c2ccc(F)cc2)cc1 (stereo not shown) [Compound 1] | > 99 | < 13 | > 20000 | 15800 | 63100 | – | EC50 [9]: 820 nM; CC50 (host B10R cells): > 20000 nM; FaSSIF solubility (FaSSIF solubility): 130 µg/mL; Microsomal stability (mouse) Clint [10]: < 3.4 mL/min/g; Microsomal stability (mouse) t1/2 [10]: > 20 min; Whole blood stability (Whole blood stability): Pass; Plasma protein binding (Plasma protein binding): 97.5%
6 | – | – | – | – | – | – | – | – | – | C[C@H]1CN(c2n[nH]c3nc(N[C@H]4CC[C@H](NS(=O)(=O)CCC(F)(F)F)CC4)ncc23)CCO1 [GSK3186899] | – | – | – | – | – | 1400 | –
